Source: patent US20070117770A1, “Human ribosomal DNA (rDNA) and ribosomal RNA (rRNA) nucleic acids and uses thereof” (Cylene Pharmaceuticals, Inc., priority 2005, published 2007)

What was measured:
Test in all cases: Protein kinase inhibition assay
Type in all cases: biochemical
Fgr(h) = Fgr(h) (Homo sapiens, UniProt P09769); details: read-out: percent residual activity of Fgr(h)
Method: (§1) Certain compounds were tested for activity in protein kinase inhibition assays. All substrates were dissolved and diluted to working stocks in de-ionized water, apart from histone H1 (10× working stock in 20 mM MOPS pH 7.0), PDKtide (10× working stock in 50 mM Tris pH 7.0) ATF2 (which is typically stored at a 20× working stock in 50 mM Tris pH 7.5, 150 mM NaCl, 0.1 mM EGTA, 0.03% Brij-35, 50% glycerol, 1 mM benzamidine, 0.2 mM PMSF and 0.1% R-mercaptoethanol), KKLNRTLSFAEPG (SEQ ID NO:203) and RRRLSFAEPG (SEQ ID NO:204) (50 mM HEPES pH 7.4) and GGEEEEYFELVKKKK (SEQ ID NO:205) (20 mM MOPS pH 7.0). All kinases were pre-diluted to a 10× working concentration prior to addition into the assay. The composition of the dilution buffer for each kinase is detailed below.
(§2) In a final reaction volume of 25 μl, Fgr (h) (5-10 mU) is incubated with 8 mM MOPS pH 7.0, 0.2 mM EDTA, 0.1 mg/ml poly(Glu, Tyr) 4:1, 10 mM MgAcetate and [gamma-33P-ATP] (specific activity approx. 500 cpm/pmol, concentration as required). The reaction is initiated by the addition of the MgATP mix. After incubation for 40 minutes at room temperature, the reaction is stopped by the addition of 5 μl of a 3% phosphoric acid solution. 10 μl of the reaction is then spotted onto a Filtermat A and washed three times for 5 minutes in 75 mM phosphoric acid and once in methanol prior to drying and scintillation counting.

PKG1β(h) = PKG1β(h) (Homo sapiens, UniProt Q13976); details: read-out: percent residual activity of PKG1β(h)
Chain of PKG1β(h) (Q13976 1-686 isoform Q13976-2): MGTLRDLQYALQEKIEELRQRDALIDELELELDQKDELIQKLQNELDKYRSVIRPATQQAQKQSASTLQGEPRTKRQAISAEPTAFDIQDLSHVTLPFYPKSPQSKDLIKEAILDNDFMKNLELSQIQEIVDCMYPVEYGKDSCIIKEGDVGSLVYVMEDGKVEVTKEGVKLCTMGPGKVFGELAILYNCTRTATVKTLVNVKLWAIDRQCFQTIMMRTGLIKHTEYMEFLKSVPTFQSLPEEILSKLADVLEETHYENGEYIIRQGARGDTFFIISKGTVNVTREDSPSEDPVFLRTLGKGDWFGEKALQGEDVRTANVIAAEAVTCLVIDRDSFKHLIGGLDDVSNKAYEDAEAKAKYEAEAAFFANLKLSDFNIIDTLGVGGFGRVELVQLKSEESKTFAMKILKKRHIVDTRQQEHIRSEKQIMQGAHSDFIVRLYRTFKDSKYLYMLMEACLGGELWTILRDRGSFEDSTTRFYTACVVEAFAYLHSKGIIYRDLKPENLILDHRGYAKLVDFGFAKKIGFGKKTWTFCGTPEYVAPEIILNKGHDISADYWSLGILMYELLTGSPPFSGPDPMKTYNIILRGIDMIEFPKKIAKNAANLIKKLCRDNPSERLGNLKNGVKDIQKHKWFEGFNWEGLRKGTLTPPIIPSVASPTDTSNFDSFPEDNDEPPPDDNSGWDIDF
Method: as §1
(§3) In a final reaction volume of 25 μl, PKG1β (h) (5-10 mU) is incubated with 8 mM MOPS pH 7.0, 0.2 mM EDTA, 10 μM cGMP, 200 μM RRRLSFAEPG (SEQ ID NO:223), 10 mM MgAcetate and [gamma-33P-ATP] (specific activity approx. 500 cpm/pmol, concentration as required). The reaction is initiated by the addition of the MgATP mix. After incubation for 40 minutes at room temperature, the reaction is stopped by the addition of 5 μl of a 3% phosphoric acid solution. […]

Fes(h) = Fes(h) (Homo sapiens, UniProt P07332); details: read-out: percent residual activity of Fes(h)
Chain of Fes(h) (P07332 whole entry): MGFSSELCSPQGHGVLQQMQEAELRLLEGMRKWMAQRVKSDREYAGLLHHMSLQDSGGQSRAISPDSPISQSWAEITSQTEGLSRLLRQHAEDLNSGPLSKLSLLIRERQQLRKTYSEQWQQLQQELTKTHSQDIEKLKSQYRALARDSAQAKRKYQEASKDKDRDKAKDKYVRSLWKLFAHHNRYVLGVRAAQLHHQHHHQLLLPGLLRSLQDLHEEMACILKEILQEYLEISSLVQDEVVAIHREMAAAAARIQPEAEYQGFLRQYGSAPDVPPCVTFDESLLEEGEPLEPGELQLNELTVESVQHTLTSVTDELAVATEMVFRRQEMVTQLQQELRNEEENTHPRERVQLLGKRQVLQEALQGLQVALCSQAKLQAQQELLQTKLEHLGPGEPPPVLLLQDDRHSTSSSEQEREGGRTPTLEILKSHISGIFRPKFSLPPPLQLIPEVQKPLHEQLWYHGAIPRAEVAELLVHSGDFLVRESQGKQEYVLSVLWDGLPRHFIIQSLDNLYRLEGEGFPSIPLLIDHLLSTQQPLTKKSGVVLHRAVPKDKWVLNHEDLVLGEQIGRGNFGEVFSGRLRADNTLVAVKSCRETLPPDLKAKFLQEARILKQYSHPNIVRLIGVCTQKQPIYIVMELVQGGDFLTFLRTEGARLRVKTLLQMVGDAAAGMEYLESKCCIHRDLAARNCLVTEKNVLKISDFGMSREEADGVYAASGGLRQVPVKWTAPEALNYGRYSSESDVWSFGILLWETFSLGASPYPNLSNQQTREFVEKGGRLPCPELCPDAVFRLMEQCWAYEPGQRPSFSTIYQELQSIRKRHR
Method: as §1
as §2, with “Fes” for “Fgr”, “[y-33P-ATP]” for “[gamma-33P-ATP]”

SGK2(h) = SGK2(h) (Homo sapiens, UniProt Q9HBY8); details: read-out: percent residual activity of SGK2(h)
Chain of SGK2(h) (Q9HBY8 whole entry): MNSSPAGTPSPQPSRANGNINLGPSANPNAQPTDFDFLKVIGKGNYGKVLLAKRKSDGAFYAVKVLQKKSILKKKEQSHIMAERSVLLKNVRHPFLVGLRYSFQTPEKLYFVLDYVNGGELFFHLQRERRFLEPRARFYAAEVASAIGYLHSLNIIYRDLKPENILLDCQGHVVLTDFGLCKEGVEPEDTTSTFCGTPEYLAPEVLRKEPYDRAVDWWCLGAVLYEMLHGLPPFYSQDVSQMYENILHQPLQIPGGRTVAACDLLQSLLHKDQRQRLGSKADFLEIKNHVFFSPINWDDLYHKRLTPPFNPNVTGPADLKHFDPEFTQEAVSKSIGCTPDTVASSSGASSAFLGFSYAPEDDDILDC
Method: as §1
as §2, with “SGK2” for “Fgr”, “30 μM GRPRTSSFAEGKK (SEQ ID NO:226),” for “0.1 mg/ml poly(Glu, Tyr) 4:1,”, “P30 filtermat” for “Filtermat A”

ZAP-70(h) = ZAP-70(h) (Homo sapiens, UniProt P43403); details: read-out: percent residual activity of ZAP-70(h)
Chain of ZAP-70(h) (P43403 whole entry): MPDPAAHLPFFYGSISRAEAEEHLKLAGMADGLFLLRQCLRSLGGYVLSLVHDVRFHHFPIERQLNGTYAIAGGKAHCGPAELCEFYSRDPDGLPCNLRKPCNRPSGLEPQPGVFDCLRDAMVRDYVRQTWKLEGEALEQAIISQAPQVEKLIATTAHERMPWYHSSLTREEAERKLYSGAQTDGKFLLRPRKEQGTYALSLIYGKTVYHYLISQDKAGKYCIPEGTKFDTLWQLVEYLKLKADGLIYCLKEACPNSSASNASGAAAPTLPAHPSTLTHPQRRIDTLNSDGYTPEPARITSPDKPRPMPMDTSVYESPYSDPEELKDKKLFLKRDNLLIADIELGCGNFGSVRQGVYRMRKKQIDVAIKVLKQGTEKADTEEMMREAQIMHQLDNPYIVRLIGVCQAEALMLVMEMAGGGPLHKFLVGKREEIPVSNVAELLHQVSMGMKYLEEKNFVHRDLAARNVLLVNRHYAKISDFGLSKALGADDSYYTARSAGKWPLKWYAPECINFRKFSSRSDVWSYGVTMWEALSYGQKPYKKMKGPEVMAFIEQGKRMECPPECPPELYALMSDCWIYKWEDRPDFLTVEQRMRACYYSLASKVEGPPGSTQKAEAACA
Method: as §1
as §3, with “ZAP-70” for “PKG1β”, “50” for “8”, “Tris” for “MOPS”, “7.5, 0.1” for “7.0, 0.2”, “EGTA, 0.1 mM Na3VO4, 0.1% R-mercaptoethanol, 0.1 mg/ml poly(Glu, Tyr) 4:1,” for “EDTA,”, “mM MnCl2,” for “μM cGMP, 200 μM RRRLSFAEPG (SEQ ID NO:223),”

MSK2(h) = MSK2(h) (Homo sapiens, UniProt O75676); details: read-out: percent residual activity of MSK2(h)
Chain of MSK2(h) (O75676 whole entry): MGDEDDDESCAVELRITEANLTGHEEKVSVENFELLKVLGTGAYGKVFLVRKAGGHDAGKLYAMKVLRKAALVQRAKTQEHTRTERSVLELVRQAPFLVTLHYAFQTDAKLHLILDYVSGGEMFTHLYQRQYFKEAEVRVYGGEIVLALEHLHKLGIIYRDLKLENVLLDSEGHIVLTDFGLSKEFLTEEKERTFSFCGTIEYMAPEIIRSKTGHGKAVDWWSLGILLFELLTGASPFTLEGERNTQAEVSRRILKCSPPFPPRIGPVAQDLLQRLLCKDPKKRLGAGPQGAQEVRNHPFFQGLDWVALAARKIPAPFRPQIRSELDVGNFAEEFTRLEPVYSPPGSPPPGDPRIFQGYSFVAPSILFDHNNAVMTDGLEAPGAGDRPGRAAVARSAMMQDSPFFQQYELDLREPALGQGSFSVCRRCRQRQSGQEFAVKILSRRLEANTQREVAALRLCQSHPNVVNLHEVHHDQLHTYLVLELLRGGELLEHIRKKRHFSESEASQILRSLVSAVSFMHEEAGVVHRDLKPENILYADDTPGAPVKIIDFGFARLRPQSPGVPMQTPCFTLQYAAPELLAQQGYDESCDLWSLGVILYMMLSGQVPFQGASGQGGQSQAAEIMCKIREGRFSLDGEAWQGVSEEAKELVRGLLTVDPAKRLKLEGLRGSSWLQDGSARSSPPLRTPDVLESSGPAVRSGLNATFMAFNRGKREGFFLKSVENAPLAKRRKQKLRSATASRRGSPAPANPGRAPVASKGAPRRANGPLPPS
Method: as §1
as §2, with “MSK2” for “Fgr”, “30 μM GRPRTSSFAEGKK (SEQ ID NO:220),” for “0.1 mg/ml poly(Glu, Tyr) 4:1,”, “P30 filtermat” for “Filtermat A”

Chain of Fgr(h) (P09769 whole entry): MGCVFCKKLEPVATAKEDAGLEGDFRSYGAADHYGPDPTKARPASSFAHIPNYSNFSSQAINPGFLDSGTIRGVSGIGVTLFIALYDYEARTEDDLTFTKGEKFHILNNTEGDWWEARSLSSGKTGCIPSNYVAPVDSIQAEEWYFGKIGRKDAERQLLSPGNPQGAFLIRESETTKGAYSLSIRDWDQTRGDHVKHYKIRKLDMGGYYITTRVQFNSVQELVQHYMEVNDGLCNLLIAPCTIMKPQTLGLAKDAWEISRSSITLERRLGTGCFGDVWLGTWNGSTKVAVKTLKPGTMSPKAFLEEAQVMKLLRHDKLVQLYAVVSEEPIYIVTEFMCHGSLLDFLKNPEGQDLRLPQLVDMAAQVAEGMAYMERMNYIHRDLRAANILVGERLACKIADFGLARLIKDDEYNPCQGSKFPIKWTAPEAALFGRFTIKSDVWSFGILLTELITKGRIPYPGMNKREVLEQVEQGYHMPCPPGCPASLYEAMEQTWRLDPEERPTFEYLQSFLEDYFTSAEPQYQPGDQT

| SMILES | remaining activity at 2.5 µM (Fgr(h)) [%] | remaining activity at 2.5 µM (PKG1β(h)) [%] | remaining activity at 2.5 µM (Fes(h)) [%] | remaining activity at 2.5 µM (SGK2(h)) [%] | remaining activity at 2.5 µM (ZAP-70(h)) [%] | remaining activity at 2.5 µM (MSK2(h)) [%] |
| --- | --- | --- | --- | --- | --- | --- |
| CN1CCCC1CCNC(=O)c1cn2c3c(c(N4CCC(c5cnccn5)C4)c(F)cc3c1=O)Oc1cc3ccccc3cc1-2 (stereo not drawn) [Compound A-1] | 78 | 48 | 82 | 38 | 130 | 50 |
| CC(=O)N1CCN(c2ccc3c(=O)c(C(=O)NCCN4CCCC4)c4n(C)c5ccccc5n4c3n2)CC1 [Compound B-1] | 98 | 107 | 101 | 104 | 105 | 94 |
